The text below walks through data of ChEMBL document CHEMBL1156766, “Chloro-substituted 3-alkylamino-4H-1,2,4-benzothiadiazine 1,1-dioxides as ATP-sensitive potassium channel activators: impact of the position of the chlorine atom on the aromatic ring on activity and tissue selectivity” (J Med Chem, 2010).

Activity calls are given as the source filed them. The rule behind the calls is not given here.

As a reminder, the EC50 is the midpoint of the concentration-response curve. By IC50 is commonly meant the concentration that inhibits the measured activity by half. A word on the pKa: it is the pH at which an ionisable group is half protonated.

Data set [1] can be described thus: Inhibition of glucose-induced insulin secretion in rat pancreatic islets assessed as residual insulin release at 1 uM. The class given is functional, Pancreatic islet.
In data set [2] the test system is Aorta. Kind of data set: Myorelaxant activity in rat aortic ring assessed as inhibition of KCL-induced contraction. The class given is functional, tissue-based.
A short description of data set [3]: Inhibition of glucose-induced insulin secretion in rat pancreatic islets assessed as residual insulin release at 10 uM. It counts as functional, Pancreatic islet.
The nature of data set [4]: Inhibition of glucose-induced insulin secretion in rat pancreatic islets assessed as residual insulin release at 50 uM. The class given is functional, Pancreatic islet.
Data set [5] can be described thus: Increase in 86Rb outflow in perfused rat pancreatic islets at 10 uM in presence of extracellular calcium and glucose. The class given is functional, Pancreatic islet.
The target in data set [6] is Sulfonylurea receptor 1, Kir6.2 (Homo sapiens) (UniProt Q14654+Q09428). Kind of data set: Activation of human recombinant SUR1/Kir6.2 channel expressed in HEK293 cells assessed as increase in ionic current by whole cell patch clamp assay in presence of KATP channel blocker Tolbutamide. The class given is cell-based.
A short description of data set [7]: Inhibition of glucose-induced insulin secretion in rat pancreatic islets assessed as residual insulin release. The class given is functional, cell-based. The settings on record: Pancreatic islet.
Data set [8] is described as follows: Ratio of EC50 for rat aortic ring to IC50 for rat pancreatic islets. The class given is functional, Aorta.
Data set [9] in a line: Dissociation constant, pKa of the compound. The class given is physicochemical.
The nature of data set [10]: Inhibition of glucose-induced insulin secretion in rat pancreatic islets assessed as residual insulin release at 0.1 uM. It counts as functional, Pancreatic islet.
In data set [11] the target is Sulfonylurea receptor 1, Kir6.2 (Homo sapiens, UniProt Q09428+Q14654). Description: Activation of human recombinant SUR1/Kir6.2 channel expressed in HEK293 cells assessed as increase in ionic current by whole cell patch clamp assay. It counts as cell-based. In general terms: In patch-clamp work, channel activity is measured electrically.
Sequence of Sulfonylurea receptor 1, Kir6.2 (Q14654 whole entry): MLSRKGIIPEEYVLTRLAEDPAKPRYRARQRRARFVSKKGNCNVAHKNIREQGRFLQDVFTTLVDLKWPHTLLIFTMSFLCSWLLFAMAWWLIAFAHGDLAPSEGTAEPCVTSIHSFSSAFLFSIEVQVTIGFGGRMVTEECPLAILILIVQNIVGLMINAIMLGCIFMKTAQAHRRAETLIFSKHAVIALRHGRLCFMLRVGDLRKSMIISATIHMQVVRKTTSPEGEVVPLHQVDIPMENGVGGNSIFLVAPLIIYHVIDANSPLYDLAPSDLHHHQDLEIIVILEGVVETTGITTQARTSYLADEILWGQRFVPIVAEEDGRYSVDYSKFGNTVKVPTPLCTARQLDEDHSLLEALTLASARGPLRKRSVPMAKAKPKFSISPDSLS
Sequence of Sulfonylurea receptor 1, Kir6.2 (Q09428 whole entry): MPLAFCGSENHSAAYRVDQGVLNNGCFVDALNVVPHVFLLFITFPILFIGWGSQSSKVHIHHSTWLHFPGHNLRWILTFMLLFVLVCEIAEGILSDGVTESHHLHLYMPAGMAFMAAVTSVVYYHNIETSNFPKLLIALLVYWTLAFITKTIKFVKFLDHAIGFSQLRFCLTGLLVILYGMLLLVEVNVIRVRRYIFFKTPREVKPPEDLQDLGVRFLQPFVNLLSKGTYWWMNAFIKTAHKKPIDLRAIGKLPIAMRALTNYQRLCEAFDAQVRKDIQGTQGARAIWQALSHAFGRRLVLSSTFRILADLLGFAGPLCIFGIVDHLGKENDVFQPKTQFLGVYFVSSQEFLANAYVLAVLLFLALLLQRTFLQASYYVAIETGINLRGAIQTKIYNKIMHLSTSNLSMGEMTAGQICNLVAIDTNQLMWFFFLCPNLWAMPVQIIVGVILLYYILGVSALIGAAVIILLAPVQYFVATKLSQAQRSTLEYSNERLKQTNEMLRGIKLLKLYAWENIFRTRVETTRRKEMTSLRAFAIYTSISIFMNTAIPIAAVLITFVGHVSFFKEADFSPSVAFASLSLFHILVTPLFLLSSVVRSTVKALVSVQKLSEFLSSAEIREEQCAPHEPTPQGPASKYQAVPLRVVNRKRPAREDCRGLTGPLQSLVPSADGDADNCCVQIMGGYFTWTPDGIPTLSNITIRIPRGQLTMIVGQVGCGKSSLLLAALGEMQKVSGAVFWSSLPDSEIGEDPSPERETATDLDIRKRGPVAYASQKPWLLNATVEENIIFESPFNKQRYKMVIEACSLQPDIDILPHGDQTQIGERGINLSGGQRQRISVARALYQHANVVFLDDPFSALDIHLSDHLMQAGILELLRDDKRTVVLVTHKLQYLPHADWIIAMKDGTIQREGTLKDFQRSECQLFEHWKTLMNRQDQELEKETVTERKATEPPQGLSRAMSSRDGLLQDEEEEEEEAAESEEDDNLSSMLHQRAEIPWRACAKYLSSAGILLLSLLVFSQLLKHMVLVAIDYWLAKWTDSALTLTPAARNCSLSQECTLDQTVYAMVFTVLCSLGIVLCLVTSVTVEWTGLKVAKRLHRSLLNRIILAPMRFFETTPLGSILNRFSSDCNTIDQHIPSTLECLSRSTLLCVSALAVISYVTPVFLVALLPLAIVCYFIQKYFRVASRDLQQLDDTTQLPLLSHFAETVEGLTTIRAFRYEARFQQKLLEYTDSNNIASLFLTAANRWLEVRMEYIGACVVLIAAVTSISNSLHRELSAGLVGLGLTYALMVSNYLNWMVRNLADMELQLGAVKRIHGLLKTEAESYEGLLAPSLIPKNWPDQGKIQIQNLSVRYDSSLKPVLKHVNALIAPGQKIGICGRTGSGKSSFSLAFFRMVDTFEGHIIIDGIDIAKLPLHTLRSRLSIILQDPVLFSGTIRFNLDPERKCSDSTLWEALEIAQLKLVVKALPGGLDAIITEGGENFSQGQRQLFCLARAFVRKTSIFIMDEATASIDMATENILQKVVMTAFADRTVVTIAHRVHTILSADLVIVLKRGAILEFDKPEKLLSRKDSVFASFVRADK

As to `O=S1(=O)N=C(NC2CC2)Nc2ccc(Cl)cc21`, the figures for the Activity in data set [1], in data set [3] and in data set [4] were 84%, 26.56% and 5.82%, respectively. Moreover, in data set [2], the EC50 worked out at 190 µM.

Take `O=S1(=O)N=C(NC2CCC2)Nc2cc(Cl)ccc21`: the Activity was 66.17% in data set [1], 1.45 %/min in data set [5], 11.27% in [3] and 9.58% in data set [4]. The EC50 in data set [2] is greater than 300 µM. For the same compound, the result in data set [6] was inactive.

`O=S1(=O)N=C(NC2CCC2)Nc2ccc(Cl)cc21`: the Activity in data set [1] is reported as 60.19%; in [3] it was 6.44%; in [4], 8.11%. For the same compound, the IC50 in data set [7] was found to be 0.48 µM. For the same compound, the “Ratio EC50” value in data set [8] was determined as 75.

As for `CCNC1=NS(=O)(=O)c2cccc(Cl)c2N1`, the EC50 in data set [2] came out at 90.4 µM. Also, the Activity in data set [4] was 80.4%.

Consider `CCNC1=NS(=O)(=O)c2cc(Cl)ccc2N1`, for which the Activity is 40.79% in data set [1], 10.65% in data set [3] and 2.09% in data set [4].

As for `CCCNC1=NS(=O)(=O)c2ccc(Cl)cc2N1`, the Activity in data set [1] is on record as 71.5%; in data set [3] it was 14.45%; in data set [4] it was 8.74%. Further, in data set [2], the EC50 was 73.2 µM.

`CCNC1=NS(=O)(=O)c2ccc(Cl)cc2N1`: the Activity in [1] worked out at 21.7%; in data set [3] it was 9.55%. Moreover, the EC50 in [2] was 54.8 µM.

With `CCNC1=NS(=O)(=O)c2c(Cl)cccc2N1`, the values for the Activity in data set [1] and in data set [3] were 95.72% and 37.55%, respectively. Besides, the EC50 in [2] was greater than 300 µM.

As to `CC(C)NC1=NS(=O)(=O)c2cc(Cl)c(Cl)cc2N1`, the figures for the Activity in data set [1], in data set [3] and in data set [4] were 13.19%, 6.29% and 4.96%, respectively.

For the compound `CCCNC1=NS(=O)(=O)c2cc(Cl)ccc2N1`, the Activity in data set [1] worked out at 83.41%; in data set [3], 14.24%; in data set [4] it was 3.56%.

Regarding `CC(C)NC1=NS(=O)(=O)c2cccc(Cl)c2N1`, the EC50 in data set [2] is greater than 300 µM. Further, the Activity in data set [4] was determined as 96.88%. This compound had a pKa in [9] of 9.11.

Regarding `O=S1(=O)N=C(NC2CCC2)Nc2c(Cl)cccc21`, in data set [2], the EC50 stood at 126 µM. Also, in data set [4], the Activity came to 102.55%.

For the compound `CC(C)NC1=NS(=O)(=O)c2cc(Cl)ccc2N1`, the Activity in data set [1] is recorded as 36.19%; in [3] it was 4.84%; in data set [10], 90.41%; in data set [4], 5.66%.

In the case of `CC(C)NC1=NS(=O)(=O)c2ccc(Cl)cc2N1`, the Activity in data set [1] was 13.2%; in data set [3], 7.51%; in data set [10] it was 76.72%; in data set [4], 6.38%. For the same compound, the EC50 in data set [2] came to 53.4 µM. Also, the IC50 in data set [7] amounted to 0.23 µM. For the same compound, in data set [8], the “Ratio EC50” value turned out to be 230. The compound also gave a pKa in [9] of 9.35.

For `O=S1(=O)N=C(NC2CCC2)Nc2cccc(Cl)c21`, the values for the Activity in data set [1] and in [3] were 77.56% and 30.23%, respectively. Further, the EC50 in data set [2] is greater than 30 µM.

On to `O=S1(=O)N=C(NC2CC2)Nc2cc(Cl)ccc21`, for which the Activity in data set [1] was found to be 93.02%; in data set [3], 12.74%; in data set [4], 7.97%. Moreover, the EC50 in data set [2] was determined as 156 µM.

Consider `CCCNC1=NS(=O)(=O)c2cccc(Cl)c2N1`, for which the EC50 in [2] is 180 µM. Further, in [4], the Activity was determined as 94.69%.

For the compound `O=S1(=O)NC(NC2CCC2)=Nc2cc(Cl)ccc21`, in data set [11], the EC50 was determined as 0.08 µM.
